Patent US10189794B2, “Heteroaryl compounds and uses thereof” (Celgene CAR LLC, priority 2013, dated 2019)
Read-outs that look alike come from different tables or passages of the source.

Columns and labels:
[1] = tested on: Huh7 cells; test: Cell proliferation, Huh7 (CellTiter Glo); type: cell-based; conditions: Homo sapiens, Huh-7; Huh7; 120 hr; read-out: Cell Proliferation GI50 (nM) HUH
Experimental: The growth inhibition (GI50) values were determined by Graph Pad Prism.

[2] = biological target: FGFR4 in MDA-MB-453 cells (Homo sapiens (Human), UniProt P22455, Y367C); test: Target occupancy assay with biotinylated covalent probe I-127; type: cell-based; conditions: MDA-MB-453 lysate; 2 μM biotinylated probe I-127
Experimental: In order to assess free FGFR4 protein a biotinylated covalent probe was utilized. […] The reaction was incubated for 2 hr at room temperature. The samples and probe mixture were transferred to a FGFR4-coated MSD plate for 2 hr at room temperature. MSD signals were obtained with an anti-streptavidin Sulfo-tag (Meso Scale) antibody for 1 hr at room temperature.
If a compound completely (100%) covalently modies FGFR4 no free FGFR4 should be available for covalent modification by the biotinylated probe and subsequent binding to streptavidin and detection.

[3] = tested on: MDA-MB-453 cells; test: Cell proliferation, MDA-MB-453 (CellTiter Glo); type: cell-based; conditions: Homo sapiens; MDA-MB-453; 96 hr; read-out: Cell Proliferation GI50 (nM) MDA
Experimental: For both MDA-MB-453 and Huh7 cells the starting density was 5000 cells per well. The cells were allowed to settle down for 4 hr and were then treated with 5, 1.25, 0.31, 0.078, 0.020 or 0.005 μM of test compound for: 96 hr for MDA-MB-453 and 120 hr for Huh7 cells. Cell viability was determined by CellTiter Glo (Promega, Madison, Wis.) and the results were converted to cell numbers using a standard curve. The growth inhibition (GI50) values were determined by Graph Pad Prism.
The results of these experiments show the ability of compounds to inhibit cell growth in FGFR dependant cell lines and are depicted in Table 8, in the columns titled “Cell Proliferation GI50 (nM)”. MDA-MB-453 cell results fall under the heading “MDA” and Huh7 cell results fall under the heading “Huh.”

[4] = biological target: FGFR4-WT (Homo sapiens (Human), UniProt P22455); test: Omnia assay for potency assessment against FGFR4 enzyme; type: biochemical
Experimental: A 10× stock solution of FGFR4-WT (PR4380C), (from Invitrogen, Carlsbad, Calif.) corresponding to method a in Table 7, was prepared as described below. Alternatively, a 10× stock solution of FGFR4-WT (F01-11G), (SignalChem, Richmond, BC) corresponding to method b in Table 7, was prepared as described below. A solution of 1.4×ATP (AS001A) and 5×Tyr-Sox conjugated peptide substrate (KNZ3101) were prepared in IX kinase reaction buffer consisting of 20 mM Tris, pH 7.5, 5 mM MgCl2, 1 mM EGTA, 5 mM β-glycerophosphate, 5% glycerol (10× stock, KB002A) and 0.2 mM DTT (DS001A). […] The serially diluted compounds were prepared on a Tecan EVO100. A second addition of 10 μl of Tyr-Sox FGFR4 substrate was added to each well and the kinase reactions were started with the addition of 35 μL of 1.4×ATP. The reactions were monitored every 71 seconds for 240 minutes at λex360/λem485 in a Synergy plate reader from BioTek (Winooski, Vt.).

[5] = biological target: pFGFR4 in MDA-MB-453 cells (Homo sapiens (Human), UniProt P22455, Y367C); test: FGFR4 signaling (phospho-FGFR4) in MDA-MB-453 cells; type: cell-based; conditions: 1 hr treatment
Experimental: Huh7 cells were grown in DMEM (Invitrogen, Carlsbad, Calif.) supplemented with 10% FBS (Invitrogen) and 1% Penicillin-Streptomycin (P/S, Lonza, Walkersville, Md.).
For the MSD and ELISA assays, total FGFR4 antibodies were obtained from R&D Systems (Minneapolis, Minn.) and used at 1:500. For the immunoblotting (Western blotting) assay, total FGFR4 antibody was obtained from Santa Cruz (Santa Cruz, Calif.) and used at 1:1000. Phospho-FGFR antibodies were obtained from Cell Signaling (Danvers, Mass.) or R&D Systems and used at 1:1000. The phopho-FGFR antibody from Cell Signaling was used for immunoblotting, whereas the phopho-FGFR antibody from R&D was used for MSD and ELISA assays. Secondary antibodies were used at 1:10,000. The goat anti-mouse IgG IRDye 800CW antibody was obtained from LiCor Biosciences (Lincoln, Nebr.) and the goat anti-rabbit IgG Alexa Fluor 680 was obtained from Invitrogen. The anti-rabbit Sulfo-tag and anti-streptavidin Sulfo-tag antibodies was obtained from Meso Scale Discovery (Gaithersburg, Md.), and were used at 1:1000 and 1:5000, respectively.
For MDA-MB-453 cells signaling, cells were grown in 96-well poly-D-lysine plates (BD Bioscience, San Jose, Calif.) to 90% confluence, and were then incubated in low-serum (0.1% FBS) media for 16-18 hr. […] After treatment, the cells were washed with cold PBS (Invitrogen) and were immediately lysed by freeze/thawing 3× in 32 μL of cold Cell Extraction Buffer (Invitrogen) which was supplemented with Complete Protease inhibitors (Roche, Indianapolis, Ind.) and PhosphoSTOP (Roche) phosphatase inhibitors.
Phospho-protein signals were quantitated using Odyssey Infrared Imaging (Li-Cor Biosciences).
To assess phospho-FGFR signaling, the blots were probed with anti-Phospho-FGFR (Y653/Y654) and total anti-FGFR antibodies. The phospho-FGFR signal was normalized to total FGFR expression for each sample. […] The normalized data was fitted using a sigmoidal curve analysis program (Graph Pad Prism version 5) with variable Hill slope to determine the EC50 values.
After treatment, the cells were washed with cold PBS (Invitrogen), and were immediately lysed by freeze/thawing 3× in 32 μL of cold Cell Extraction Buffer (Invitrogen), which was supplemented with Complete Protease inhibitors (Roche) and PhosphoSTOP (Roche) phosphatase inhibitors.
MSD plates (Meso Scale Discovery) were coated with total FGFR-4 antibodies overnight at 4° C. A lysate (25 μL) was added to the MSD plate overnight at 4° C. The MSD signals were obtained by incubating with a phospho-FGFR antibody (R&D Systems) and an anti-rabbit sulfo-tag antibody (Meso Scale), for 2 hr at room temperature. […] The data was fitted using a sigmoidal curve analysis program (Graph Pad Prism version 5) with variable Hill slope to determine the EC50 values.
MDA-MB-453 cells were grown in 96-well poly-D-lysine plates (BD Bioscience, San Jose, Calif.) to 90% confluence. The cells were then incubated in low-serum (0.1% FBS) media for 16-18 hr. […] After treatment, the MDA-MB-453 cells were washed with cold PBS (Invitrogen) and were immediately lysed by freeze/thawing 3× in 32 μL of cold Cell Extraction Buffer (Invitrogen), which was supplemented with Complete Protease inhibitors (Roche) and PhosphoSTOP (Roche) phosphatase inhibitors.
Nunc-immuno plates (96-well; Sigma, St. Louis, Mo.) were coated with total FGFR-4 antibodies overnight at 4° C. A lysate (25 μL) was added to the plate for 2 hr at room temperature. A phospho-FGFR detection antibody (100 μL) was added per well for 2 hr at room temperature, followed by a goat anti-rabbit HRP antibody (100 μL) for 45 min. […] The data was fitted using a sigmoidal curve analysis program (Graph Pad Prism version 5) with variable Hill slope to determine the EC50 values.

[6] = biological target: pFGFR4 in Huh7 cells (Homo sapiens (Human), UniProt P22455); test: FGFR4 signaling (phospho-FGFR4) in Huh7 cells, MSD; type: cell-based; conditions: Meso Scale assay (MSD), 1 hr treatment, read-out: Signaling EC50 (nM) pFGFR4 (Huh)
[7] = method a: Invitrogen FGFR4-WT 10 nM, ATP 300 uM, Y10-Sox 10 uM, read-out: FGFR4 IC50
[8] = Method A immunoblotting (Western blotting)

Sequence of pFGFR4 in MDA-MB-453 cells (P22455 22-802 Y367C): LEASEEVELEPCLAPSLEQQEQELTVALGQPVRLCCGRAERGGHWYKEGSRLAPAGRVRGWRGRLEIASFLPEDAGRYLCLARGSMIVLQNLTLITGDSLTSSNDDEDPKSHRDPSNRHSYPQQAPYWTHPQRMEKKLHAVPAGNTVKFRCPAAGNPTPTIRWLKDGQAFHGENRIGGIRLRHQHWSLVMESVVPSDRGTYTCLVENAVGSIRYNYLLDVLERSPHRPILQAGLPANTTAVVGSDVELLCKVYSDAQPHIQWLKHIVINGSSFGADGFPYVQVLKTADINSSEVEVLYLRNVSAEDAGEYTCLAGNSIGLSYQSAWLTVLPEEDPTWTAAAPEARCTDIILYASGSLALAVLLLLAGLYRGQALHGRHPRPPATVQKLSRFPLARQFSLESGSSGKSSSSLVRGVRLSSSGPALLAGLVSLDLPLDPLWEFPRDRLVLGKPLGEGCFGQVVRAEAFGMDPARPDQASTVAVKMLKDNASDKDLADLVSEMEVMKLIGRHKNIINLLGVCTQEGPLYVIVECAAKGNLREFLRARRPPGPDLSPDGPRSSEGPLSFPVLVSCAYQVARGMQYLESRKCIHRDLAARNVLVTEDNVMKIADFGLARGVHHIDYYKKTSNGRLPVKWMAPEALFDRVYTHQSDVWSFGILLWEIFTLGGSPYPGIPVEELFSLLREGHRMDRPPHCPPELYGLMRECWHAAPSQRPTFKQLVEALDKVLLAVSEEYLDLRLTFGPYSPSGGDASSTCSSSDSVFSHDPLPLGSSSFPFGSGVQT
Sequence of FGFR4 in MDA-MB-453 cells (P22455 22-802 Y367C): as above
Sequence of pFGFR4 in Huh7 cells (P22455 22-802): as the sequence (P22455 22-802 Y367C) above, with C346Y counted along it
Sequence of FGFR4-WT (P22455 22-802): as the sequence (P22455 22-802 Y367C) above, with C346Y counted along it

SMILES | GI50 [1] | EC50 [2] | GI50 [3] | IC50 [4, 7] | EC50 [5, 8] | EC50 [6] | IC50 ([4]; read-out: FGFR4 IC50) | IC50 [4] | EC50 ([5]; Method C ELISA)
C=CC(=O)NC1CCCCC1Nc1ncc2c(n1)N(Cc1cccnc1)C(=O)N(c1c(Cl)c(OC)cc(OC)c1Cl)C2 (racemic) [I-35] | 501 to 999 nM | 101 to 500 nM | 101 to 500 nM | < 100 nM |  |  |  |  | 
C=CC(=O)NCc1ccccc1Nc1ncc2c(n1)N(Cc1cccc(NC(=O)CC)c1)C(=O)N(c1c(Cl)c(OC)cc(OC)c1Cl)C2 [I-179] | 101 to 500 nM |  | 101 to 500 nM |  | < 100 nM |  |  |  | 
C=CC(=O)Nc1cc(N2CCN(C(C)=O)CC2)ccc1Nc1ccc2c(c1)N(C)C(=O)N(c1cc(OC)cc(OC)c1)C2 [I-55] | 101 to 500 nM | 101 to 500 nM | 101 to 500 nM | < 100 nM |  |  |  |  | 
C=CC(=O)NC1CCCCC1Nc1ncc2c(n1)N(CCOC)C(=O)N(c1c(Cl)c(OC)cc(OC)c1Cl)C2 (racemic) [I-61] | 501 to 999 nM | 101 to 500 nM | 101 to 500 nM | < 100 nM |  | 101 to 500 nM |  |  | 
C=CC(=O)NC1CCCCC1Nc1ncc2c(n1)N(C)C(=O)N(c1cc(OC)cc(OC)c1Cl)C2 (racemic) [I-76] | > 1000 nM |  |  | 501 to 999 nM |  | > 1000 nM |  |  | 
C=CC(=O)Nc1ccccc1Nc1ncc2c(n1)N(C)C(=O)N(c1c(Cl)c(OC)cc(OC)c1Cl)C2 [I-2] | 101 to 500 nM |  | < 100 nM |  | < 100 nM |  |  |  | 
C=CC(=O)NC1CCCCC1Nc1ncc2c(n1)N(CCF)C(=O)N(c1cc(OC)cc(OC)c1Cl)C2 (racemic) [I-111] | > 1000 nM |  |  | 501 to 999 nM |  | > 1000 nM |  |  | 
C=CC(=O)N[C@H]1CCCC[C@H]1Nc1ncc2c(n1)N(Cc1cscn1)C(=O)N(c1c(Cl)c(OC)cc(OC)c1Cl)C2 [I-114] | 101 to 500 nM | 101 to 500 nM | 101 to 500 nM |  |  |  | < 100 nM |  | 
C=CC(=O)NC1COCC1Nc1ncc2c(n1)N(C)C(=O)N(c1c(Cl)c(OC)cc(OC)c1Cl)C2 (centres unmarked) [I-126] | 101 to 500 nM | < 100 nM | < 100 nM |  |  |  |  |  | 
C=CC(=O)NC1CCCCC1Nc1ncc2c(n1)N(Cc1ccccc1)C(=O)N(c1c(Cl)c(OC)cc(OC)c1Cl)C2 (racemic) [I-63] | 101 to 500 nM | 101 to 500 nM | 101 to 500 nM |  |  |  |  | < 100 nM | 
C=CC(=O)Nc1cc(N2CCN(CCOC)CC2)ccc1Nc1ncc2c(n1)N(Cc1cccc(NC(=O)CC)c1)C(=O)N(c1cc(OC)cc(OC)c1)C2 [I-9] | 501 to 999 nM | < 100 nM | < 100 nM |  |  |  |  |  | 
C=CC(=O)Nc1ccccc1CNc1ncc2c(n1)N(Cc1cccc(NC(=O)CC)c1)C(=O)N(c1c(Cl)c(OC)cc(OC)c1Cl)C2 [I-180] |  |  |  |  |  |  |  |  | < 100 nM
C=CC(=O)Nc1ccccc1Nc1ncc2c(n1)N(Cc1ccc(F)cc1)C(=O)N(c1c(Cl)c(OC)cc(OC)c1Cl)C2 [I-25] | 501 to 999 nM | 101 to 500 nM | < 100 nM |  |  |  |  |  | 
C=CC(=O)NC1CCCCC1Nc1ncc2c(n1)N(C1CC1)C(=O)N(c1c(Cl)c(OC)cc(OC)c1Cl)C2 (racemic) [I-68] | > 1000 nM |  | > 1000 nM | 101 to 500 nM |  | 501 to 999 nM |  |  | 
C=CC(=O)NC1CCCCC1Nc1ncc2c(n1)N(CC(F)F)C(=O)N(c1cc(OC)cc(OC)c1Cl)C2 (racemic) [I-107] | > 1000 nM |  |  | > 1000 nM |  | > 1000 nM |  |  | 
C=CC(=O)Nc1cc(N(C)CCOC)ccc1Nc1ncc2c(n1)N(Cc1ccccc1)C(=O)N(c1cc(OC)cc(OC)c1)C2 [I-13] | > 1000 nM | 101 to 500 nM | 101 to 500 nM |  |  |  |  |  | 
C=CC(=O)Nc1ccccc1Nc1ncc2c(n1)N(Cc1cccnc1)C(=O)N(c1cc(OC)cc(OC)c1)C2 [I-44] | > 1000 nM | 101 to 500 nM | 101 to 500 nM |  |  |  |  |  | 
C=CC(=O)NC1CCCCC1Nc1ncc2c(n1)N(CC#N)C(=O)N(c1c(Cl)c(OC)cc(OC)c1Cl)C2 (racemic) [I-47] | > 1000 nM |  |  | < 100 nM |  | 501 to 999 nM |  |  | 
C=CC(=O)NC1CCCCC1Nc1ncc2c(n1)N(CC(F)F)C(=O)N(c1c(Cl)c(OC)cc(OC)c1Cl)C2 (racemic) [I-105] | 501 to 999 nM |  |  | 101 to 500 nM |  | 101 to 500 nM |  |  | 
